What all share (type): cell-based
For assay [1], the system named is A549 lung carcinoma cell line bearing KRas^G12S oncogenic mutation. In words: Cell proliferation inhibition (MTS), A549. The following applies: Homo sapiens. As to the method: (§1) • Cell line #1: A549. Lung carcinoma cell line bearing KRas^G12S oncogenic mutation • Cell line #2: H358. non-small cell lung cancer line bearing KRas^G12C oncogenic mutation • Cell line #3: PANC-1. epithelioid carcinoma of the pancreas cell line bearing KRas^G12D oncogenic mutation • Cell line #4: RPMI. myeloma cell line bearing KRas^G12A oncogenic mutation
(§2) Cell lines were cultured in DMEM or RPMI-1640 supplemented with FBS 10%. In order to assess the antiproliferative effect of compounds, cells were seeded at a density of 1.8×10^3, 6.2×10^3, 7.8×10^3, 21×10^3 and 2×10^3 cells/cm^2, respectively, in tissue culture microplates and were incubated in humidified atmosphere at 5% CO2. 24 h later, compounds dissolved in DMSO 100% were added for different final concentrations ranging between 0.1 and 50 μM for a final DMSO concentration of 0.5% and the plates were incubated for another 72 h. After incubation, proliferation was quantified using CellTiter 96® Aqueous Non-Radioactive Cell Proliferation Assay-MTS (Promega #G5421) following manufacturer instructions. Amount of 490 nm absorbance is directly proportional to the number of living cells. Absorbance was recorded with a BMG Fluostar Optima Microplate Reader and normalized to control with vehicle.

The test system of assay [2] is RPMI-8226 myeloma cell line bearing KRas^G12A oncogenic mutation. In words: Cell proliferation inhibition (MTS), RPMI-8226. As to conditions: Homo sapiens. On the procedure: as §1, §2
Assay [3] relates to H358 non-small cell lung cancer line bearing KRas^G12C oncogenic mutation. As to the kind of experiment: Cell proliferation inhibition (MTS), H358. The following applies: Homo sapiens, NCI-H358. As to the method: as §1, §2
For assay [4], the system named is PANC-1 epithelioid carcinoma of the pancreas cell line bearing KRas^G12D oncogenic mutation. As to the kind of experiment: Cell proliferation inhibition (MTS), PANC-1. As to conditions: Homo sapiens. As to the method:
as §1, §2

Where [5] appears, read: compounds 54-63, based on estimations and/or preliminary experimental results.
Where [6] appears, read: 72 h incubation, MTS, compounds 1-53, median from experimental results.

This is an account of results in patent US11466012B2, “Tetrahydroisoquinoline compounds” (ALLINKY BIOPHARMA, priority 2018, dated 2022).

Turning to `COc1cc2c(cc1OCCc1cnc(C)cn1)C(c1ccc(C)cc1C)N(C(=O)NCc1cocn1)CC2` (centres unmarked) [Compound 60], the concentration for half-maximal inhibition (IC50) (usually the concentration at which inhibition is half-maximal) is 600 nM in assay [1] (setting [5]), 500 nM in assay [2] (setting [5]), 700 nM in assay [3] (setting [5]) and 700 nM in assay [4] (setting [5]).

On to `Cc1ccc(C2c3cc(OCCc4cccnc4)c(C(=O)O)cc3CCN2C(=O)NCc2cocn2)c(C)c1` (centres unmarked) [Compound 35], for which the IC50 in assay [1] (setting [6]) is 330 nM; in assay [2] (setting [6]), 320 nM; in assay [3] (setting [6]) it was 510 nM; in assay [4] (setting [6]) it was 430 nM.

As to `COc1cc2c(cc1OCCc1cccc(O)c1)C(c1c(O)cc(C)cc1Cl)N(CCC(C)=O)CC2` (centres unmarked) [Compound 5], the IC50 in assay [1] (setting [6]) is 4820 nM; in assay [2] (setting [6]), 1510 nM; in assay [3] (setting [6]) it was more than 20000 nM; in assay [4] (setting [6]), more than 30000 nM.

Turning to `Cc1ccc(C2c3cc(OCCc4cccnc4)c(C(N)=O)cc3CCN2C(=O)NCc2cocn2)c(C)c1` (centres unmarked) [Compound 34, 1-(2,4-dimethylphenyl)-N2-(oxazol-4-ylmethyl)-7-(2-(pyridin-3-yl)ethoxy)-3,4-dihydroisoquinoline-2,6(1H)-dicarboxamide], the half-inhibitory concentration (IC50) in assay [1] (setting [6]) worked out at 430 nM; in assay [2] (setting [6]) it was 720 nM; in assay [3] (setting [6]), 390 nM; in assay [4] (setting [6]) it was 420 nM.

With `COc1cc2c(cc1OCCc1cccnc1C)C(c1ccc(C)cc1C)N(C(=O)NCc1cocn1)CC2` (centres unmarked) [Compound 58], the IC50 in assay [1] (setting [5]) was 600 nM; in assay [2] (setting [5]) it was 600 nM; in assay [3] (setting [5]) it was 600 nM; in assay [4] (setting [5]), 500 nM.

As to `Cc1ccc(C2c3cc(OCCc4cccnc4)c(CO)cc3CCN2C(=O)NCc2cocn2)c(C)c1` (centres unmarked) [Compound 41], the IC50 in assay [1] (setting [6]) came out at 1270 nM; in assay [2] (setting [6]) it was 1380 nM; in assay [3] (setting [6]), 1140 nM; in assay [4] (setting [6]), 2110 nM.

For `COc1cc2c(cc1OCCc1cccc(O)c1)C(c1ccc(C)cc1C)N(C(=O)NCc1cncs1)CC2` (centres unmarked) [Compound 19], the IC50 in assay [1] (setting [6]) turned out to be 950 nM; in assay [2] (setting [6]), 2930 nM; in assay [3] (setting [6]), 680 nM; in assay [4] (setting [6]), 570 nM.

In the case of `COc1cc2c(cc1OCCc1cccc(O)c1)C(c1ccc(C)cc1Cl)N(C(=O)NCc1ccncc1)CC2` (centres unmarked) [Compound 13], the IC50 worked out at 9370 nM in assay [1] (setting [6]), 2860 nM in assay [2] (setting [6]), 15800 nM in assay [3] (setting [6]) and 12600 nM in assay [4] (setting [6]).

`COc1cc2c(cc1OCCc1ccccn1)C(c1ccc(C)cc1C)N(C(=O)NCc1cocn1)CC2` (centres unmarked) [Compound 49]: the IC50 in assay [1] (setting [6]), in assay [2] (setting [6]), in assay [3] (setting [6]) and in assay [4] (setting [6]) was more than 1000 nM in each case.

Regarding `COc1cc2c(cc1OCCc1cccc(O)c1)C(c1ccc(C)cc1C)N(C(=O)NCc1ccccn1)CC2` (centres unmarked) [Compound 20], the IC50 in assay [1] (setting [6]) stood at 750 nM; in assay [2] (setting [6]), 600 nM; in assay [3] (setting [6]), 480 nM; in assay [4] (setting [6]), 560 nM.

Turning to `CCC(=O)CCN1CCc2cc(OC)c(OCCc3cccc(O)c3)cc2C1c1ccc(OC)c(OC)c1Cl` (centres unmarked) [Compound 8], the concentration for half-maximal inhibition (IC50) in assay [1] (setting [6]) worked out at 4110 nM; in assay [2] (setting [6]) it was 2110 nM; in assay [3] (setting [6]), 11200 nM; in assay [4] (setting [6]), 11100 nM.

Turning to `COc1cc2c(cc1OCCc1cncc(C)n1)C(c1ccc(C)cc1C)N(C(=O)NCc1cocn1)CC2` (centres unmarked) [Compound 61], the IC50 is 600 nM in assay [1] (setting [5]), 500 nM in assay [2] (setting [5]), 700 nM in assay [3] (setting [5]) and 700 nM in assay [4] (setting [5]).

As for `Cc1ccc(C2c3cc(OCCc4cccc(O)c4)c(O)cc3CCN2C(=O)NCc2cocn2)c(C)c1` (centres unmarked) [Compound 25], the IC50 in assay [1] (setting [6]) was 550 nM; in assay [2] (setting [6]), 580 nM; in assay [3] (setting [6]), 520 nM; in assay [4] (setting [6]) it was 530 nM.

As to `COc1cc2c(cc1OCCc1cccc(C(=O)O)c1)C(c1ccc(C)cc1C)N(C(=O)NCc1cocn1)CC2` (centres unmarked) [Compound 31], the half-inhibitory concentration (IC50) was 2070 nM in assay [1] (setting [6]), 1910 nM in assay [2] (setting [6]), 2110 nM in assay [3] (setting [6]) and 1830 nM in assay [4] (setting [6]).
